What was measured:
[1] = molecular target: T1, IL-6Rα (Homo sapiens, UniProt P08887); experiment: Surface plasmon resonance, immobilized IL-6Rα; format: binding; conditions: SPR, CM5 chip, steady-state KD
T1 construct: purchased PeproTech
T1 sequence (P08887 20-468): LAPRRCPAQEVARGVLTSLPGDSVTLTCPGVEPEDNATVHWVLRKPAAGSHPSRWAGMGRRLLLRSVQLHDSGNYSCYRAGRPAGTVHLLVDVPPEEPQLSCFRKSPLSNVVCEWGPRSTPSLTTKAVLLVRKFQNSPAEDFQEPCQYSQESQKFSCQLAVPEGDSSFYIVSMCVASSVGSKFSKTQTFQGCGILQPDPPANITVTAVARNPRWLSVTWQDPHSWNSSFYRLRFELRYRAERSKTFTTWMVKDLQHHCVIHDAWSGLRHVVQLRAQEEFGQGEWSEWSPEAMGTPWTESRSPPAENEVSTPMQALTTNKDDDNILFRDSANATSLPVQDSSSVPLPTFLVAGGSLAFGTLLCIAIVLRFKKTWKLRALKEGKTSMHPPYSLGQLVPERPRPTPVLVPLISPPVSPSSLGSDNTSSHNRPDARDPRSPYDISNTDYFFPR
Procedure: (§1) The surface plasmon resonance (SPR) assay was measured using the BIAcore T200 model (GE Healthcare, Chicago, IL, USA) with HBS-EP buffer (1×HBS-EP, GE Healthcare, Chicago, IL, USA) containing 5% dimethyl sulfoxide (DMSO; Sigma-Aldrich, St. Louis, MO, USA). The pH scouting for IL-6 (PeproTech, Rocky Hill, NJ, USA), IL-6Rα (PeproTech, Rocky Hill, NJ, USA), and gp130 (Sino Biological, Beijing, China, or ANRT, Daejeon, Korea) immobilization was performed in 10 mM acetate buffer at pH 4.5. IL-6, IL-6Rα, and gp130 were immobilized on a CM5 chip at 750, 1200, and 2000 response units (RU). Butein was injected into the IL-6, IL-6Rα and gp130-immobilized flow cell at concentrations of 10, 20, 30, 40, 50, 60, 70, 80, 90, and 100 μM with a 25 μL/min flow rate for 150 s and allowed to dissociate for 300 s. Steady-state KD was determined via the T-200 BIAevaluation software (GE Healthcare, Chicago, IL, USA).

[2] = molecular target: T2, IL-6 (Homo sapiens, UniProt P05231); experiment: Surface plasmon resonance, immobilized IL-6; format: binding; conditions: SPR, CM5 chip, steady-state KD
T2 construct: purchased PeproTech
T2 sequence (P05231 30-212): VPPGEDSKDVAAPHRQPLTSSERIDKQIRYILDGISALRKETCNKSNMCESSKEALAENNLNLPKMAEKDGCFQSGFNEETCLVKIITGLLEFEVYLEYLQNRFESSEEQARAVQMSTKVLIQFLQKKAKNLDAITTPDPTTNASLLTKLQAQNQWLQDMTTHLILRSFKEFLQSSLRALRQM
Procedure: as §1

[3] = test system: SKOV3 cells; experiment: Matrigel invasion assay, SKOV3; format: cell-based, human; conditions: 48 h
Procedure: Matrigel invasion assays were performed using a BioCoat Matrigel Invasion Chamber (BD Bioscience, Bedford, MA, USA). A2780 and SKOV3 cells (50,000 cells) were placed inside the chamber in serum-free medium containing 500 μL of drugs, and 700 μL of medium containing serum were placed outside the chamber. After incubation for 48 h, the infiltrating cells were stained using the Differential Quick Stain Kit (Cat.no. 26096-50, Electron Microscopy Sciences, Hatfield, PA, USA). Cells were imaged with a Slide Scanner (Aperio CS2, Leica Microsystems, Wetzlar, Germany) and the number of invading cells was quantified using Image J.

[4] = molecular target: T3, gp130 (Homo sapiens, UniProt P40189); experiment: Surface plasmon resonance, immobilized gp130; format: binding; conditions: SPR, CM5 chip, steady-state KD
T3 construct: purchased Sino Biological or ANRT
T3 sequence (P40189 23-918): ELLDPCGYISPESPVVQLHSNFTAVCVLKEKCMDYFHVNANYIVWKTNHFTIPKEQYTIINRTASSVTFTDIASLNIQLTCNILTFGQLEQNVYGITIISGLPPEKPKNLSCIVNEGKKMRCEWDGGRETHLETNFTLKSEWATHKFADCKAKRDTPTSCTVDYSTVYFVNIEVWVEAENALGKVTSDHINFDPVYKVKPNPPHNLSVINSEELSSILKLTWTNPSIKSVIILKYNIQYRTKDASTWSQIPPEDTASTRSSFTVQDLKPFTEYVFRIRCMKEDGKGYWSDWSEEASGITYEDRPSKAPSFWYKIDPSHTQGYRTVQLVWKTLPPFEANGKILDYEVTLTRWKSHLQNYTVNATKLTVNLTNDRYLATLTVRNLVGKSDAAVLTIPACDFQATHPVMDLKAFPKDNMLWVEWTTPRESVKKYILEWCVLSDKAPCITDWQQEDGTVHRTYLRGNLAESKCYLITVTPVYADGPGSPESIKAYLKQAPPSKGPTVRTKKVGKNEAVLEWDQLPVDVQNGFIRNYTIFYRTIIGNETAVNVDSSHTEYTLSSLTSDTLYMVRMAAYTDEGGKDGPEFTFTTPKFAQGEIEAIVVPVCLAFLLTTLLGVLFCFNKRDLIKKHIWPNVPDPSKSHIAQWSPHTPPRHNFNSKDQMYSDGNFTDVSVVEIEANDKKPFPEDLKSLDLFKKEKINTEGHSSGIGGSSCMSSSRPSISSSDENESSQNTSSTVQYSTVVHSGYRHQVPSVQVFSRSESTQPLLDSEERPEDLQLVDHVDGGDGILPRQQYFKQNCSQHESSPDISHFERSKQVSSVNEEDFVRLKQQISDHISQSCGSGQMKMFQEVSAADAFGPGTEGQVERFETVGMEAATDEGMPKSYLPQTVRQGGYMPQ
Procedure: as §1

**Q.** Which Kd [1] does the source give for O=C(/C=C/c1ccc(O)c(O)c1)c1ccc(O)cc1O [butein] here?
**A.** Its Kd is 435 µM.

**Q.** What about the Kd [2] of the same molecule?
**A.** Its Kd is 91.4 µM.

**Q.** What about the “Cell infiltration (invasion), SKOV3” value [3] of the same molecule?
**A.** The value was “similarly affected”.

**Q.** And the Kd [4]?
**A.** The Kd was 616 µM.

— article PMC10094418, “Butein Inhibits Cell Growth by Blocking the IL-6/IL-6Rα Interaction in Human Ovarian Cancer and by Regulation of the IL-6/STAT3/FoxO3a Pathway” (International Journal of Molecular Sciences, 2023)
